Test in all cases: DSF Tm panel
Type in all cases: binding
Details in all cases: 10 μM compound

For one experiment, the target named is T1, MAP2K6A (Homo sapiens, UniProt P52564).
T1 construct: purchased in-house DSF kinase panel (SGC-style construct names; the trailing letter is the construct ID)
T1 sequence (P52564 53-314): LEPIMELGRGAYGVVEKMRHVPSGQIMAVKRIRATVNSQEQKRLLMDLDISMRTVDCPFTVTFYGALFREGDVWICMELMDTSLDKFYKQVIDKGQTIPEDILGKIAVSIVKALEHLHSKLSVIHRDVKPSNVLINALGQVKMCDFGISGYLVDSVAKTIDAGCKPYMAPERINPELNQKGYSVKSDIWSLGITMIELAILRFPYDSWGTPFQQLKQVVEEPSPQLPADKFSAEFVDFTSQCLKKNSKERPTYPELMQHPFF

A further experiment concerns the target T2, OSR1A (Homo sapiens, UniProt O95747).
T2 construct: purchased in-house DSF kinase panel (SGC-style construct names; the trailing letter is the construct ID)

The next experiment has as its target T3, MAPK9A (Homo sapiens, UniProt P45984).
T3 construct: purchased in-house DSF kinase panel (SGC-style construct names; the trailing letter is the construct ID)

In another experiment the target is T4, STK39A (Homo sapiens, UniProt Q9UEW8).
T4 construct: purchased in-house DSF kinase panel (SGC-style construct names; the trailing letter is the construct ID)

A further experiment deals with T5, UKL3A (ULK3A) (Homo sapiens, UniProt Q6PHR2).
T5 construct: purchased in-house DSF kinase panel (SGC-style construct names; the trailing letter is the construct ID)
T5 sequence (Q6PHR2 1-279): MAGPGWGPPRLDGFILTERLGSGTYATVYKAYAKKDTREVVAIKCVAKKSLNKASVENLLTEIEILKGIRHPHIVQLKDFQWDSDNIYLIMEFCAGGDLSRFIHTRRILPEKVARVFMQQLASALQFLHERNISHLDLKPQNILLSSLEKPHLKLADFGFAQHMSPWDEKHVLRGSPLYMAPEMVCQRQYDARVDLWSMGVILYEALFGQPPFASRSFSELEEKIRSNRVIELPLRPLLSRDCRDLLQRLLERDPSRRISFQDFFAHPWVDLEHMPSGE

A further experiment has as its target T6, CSNK1DA (Homo sapiens, UniProt P48730).
T6 construct: purchased in-house DSF kinase panel (SGC-style construct names; the trailing letter is the construct ID)
T6 sequence (P48730 1-294): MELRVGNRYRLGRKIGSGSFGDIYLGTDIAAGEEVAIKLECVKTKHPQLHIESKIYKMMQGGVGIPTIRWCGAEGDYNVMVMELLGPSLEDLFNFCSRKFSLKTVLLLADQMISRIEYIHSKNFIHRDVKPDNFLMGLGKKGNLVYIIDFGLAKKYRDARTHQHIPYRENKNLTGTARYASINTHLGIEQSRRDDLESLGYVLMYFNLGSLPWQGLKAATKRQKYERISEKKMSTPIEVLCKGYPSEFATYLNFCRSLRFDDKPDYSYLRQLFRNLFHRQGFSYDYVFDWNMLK

The next experiment concerns the target T7, CASKA (Homo sapiens, UniProt O14936).
T7 construct: purchased in-house DSF kinase panel (SGC-style construct names; the trailing letter is the construct ID)
T7 sequence (O14936 12-276): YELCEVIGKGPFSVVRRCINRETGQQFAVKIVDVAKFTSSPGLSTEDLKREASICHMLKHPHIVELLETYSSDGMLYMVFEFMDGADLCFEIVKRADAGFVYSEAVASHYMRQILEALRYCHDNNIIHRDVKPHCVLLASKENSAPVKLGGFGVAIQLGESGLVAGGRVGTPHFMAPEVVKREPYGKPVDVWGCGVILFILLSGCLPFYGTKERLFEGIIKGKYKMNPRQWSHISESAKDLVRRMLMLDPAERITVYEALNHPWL

Another experiment concerns the target T8, CDK2A (Homo sapiens, UniProt P24941).
T8 construct: purchased in-house DSF kinase panel (SGC-style construct names; the trailing letter is the construct ID)

The target of another experiment is T9, CAMKK2B (Homo sapiens, UniProt Q96RR4).
T9 construct: purchased in-house DSF kinase panel (SGC-style construct names; the trailing letter is the construct ID)
T9 sequence (Q96RR4 161-449): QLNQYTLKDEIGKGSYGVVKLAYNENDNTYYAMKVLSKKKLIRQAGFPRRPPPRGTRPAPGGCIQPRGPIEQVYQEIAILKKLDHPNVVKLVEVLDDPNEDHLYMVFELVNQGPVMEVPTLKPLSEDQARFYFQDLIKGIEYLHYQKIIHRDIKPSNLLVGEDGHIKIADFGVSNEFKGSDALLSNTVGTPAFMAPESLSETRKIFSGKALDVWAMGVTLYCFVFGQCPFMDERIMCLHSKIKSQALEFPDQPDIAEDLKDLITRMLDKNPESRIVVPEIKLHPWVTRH

Another experiment addresses T10, DYRK2A (Homo sapiens, UniProt Q92630).
T10 construct: purchased in-house DSF kinase panel (SGC-style construct names; the trailing letter is the construct ID)
T10 sequence (Q92630 1-601): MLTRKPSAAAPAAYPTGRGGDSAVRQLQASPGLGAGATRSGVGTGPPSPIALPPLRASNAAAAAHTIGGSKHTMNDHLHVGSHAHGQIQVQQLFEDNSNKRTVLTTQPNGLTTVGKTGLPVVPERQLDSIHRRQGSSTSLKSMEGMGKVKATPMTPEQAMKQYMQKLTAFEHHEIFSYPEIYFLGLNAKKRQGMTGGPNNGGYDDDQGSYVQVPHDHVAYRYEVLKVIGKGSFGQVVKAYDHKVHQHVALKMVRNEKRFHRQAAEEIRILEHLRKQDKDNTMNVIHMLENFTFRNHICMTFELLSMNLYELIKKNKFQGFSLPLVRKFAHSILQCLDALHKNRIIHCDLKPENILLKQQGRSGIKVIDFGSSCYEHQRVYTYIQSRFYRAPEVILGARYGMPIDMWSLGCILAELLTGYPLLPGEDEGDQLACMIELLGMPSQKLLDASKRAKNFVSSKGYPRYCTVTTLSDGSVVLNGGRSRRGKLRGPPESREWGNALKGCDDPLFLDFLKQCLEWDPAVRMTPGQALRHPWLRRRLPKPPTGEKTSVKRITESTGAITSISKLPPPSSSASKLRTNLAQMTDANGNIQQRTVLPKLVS

A further experiment has as its target T11, MAPK15A (MAPK15HSD) (Homo sapiens, UniProt Q8TD08).
T11 sequence (Q8TD08 13-304 limits assumed): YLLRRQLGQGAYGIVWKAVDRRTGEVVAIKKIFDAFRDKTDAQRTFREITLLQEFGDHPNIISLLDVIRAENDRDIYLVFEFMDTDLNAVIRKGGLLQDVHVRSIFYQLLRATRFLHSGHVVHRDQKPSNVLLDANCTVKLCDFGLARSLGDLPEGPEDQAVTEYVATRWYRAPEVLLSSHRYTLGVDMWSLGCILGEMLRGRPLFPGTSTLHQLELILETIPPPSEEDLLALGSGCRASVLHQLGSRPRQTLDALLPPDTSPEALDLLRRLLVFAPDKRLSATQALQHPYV

For the next experiment, the target named is T12, GPRK5A (Homo sapiens, UniProt P34947).
T12 construct: purchased in-house DSF kinase panel (SGC-style construct names; the trailing letter is the construct ID)
T12 sequence (P34947 186-514): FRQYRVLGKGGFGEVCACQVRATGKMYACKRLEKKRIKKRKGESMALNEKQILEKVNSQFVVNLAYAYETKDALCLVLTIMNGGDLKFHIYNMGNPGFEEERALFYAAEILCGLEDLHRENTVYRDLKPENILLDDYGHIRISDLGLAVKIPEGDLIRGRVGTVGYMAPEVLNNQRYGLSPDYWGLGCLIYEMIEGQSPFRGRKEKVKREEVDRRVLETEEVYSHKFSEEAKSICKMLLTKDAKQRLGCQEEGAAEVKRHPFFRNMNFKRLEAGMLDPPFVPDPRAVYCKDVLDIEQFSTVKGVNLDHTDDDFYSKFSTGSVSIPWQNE

Another experiment concerns the target T13, PKMYT1A (Homo sapiens, UniProt Q99640).
T13 construct: purchased in-house DSF kinase panel (SGC-style construct names; the trailing letter is the construct ID)
T13 sequence (Q99640 75-362): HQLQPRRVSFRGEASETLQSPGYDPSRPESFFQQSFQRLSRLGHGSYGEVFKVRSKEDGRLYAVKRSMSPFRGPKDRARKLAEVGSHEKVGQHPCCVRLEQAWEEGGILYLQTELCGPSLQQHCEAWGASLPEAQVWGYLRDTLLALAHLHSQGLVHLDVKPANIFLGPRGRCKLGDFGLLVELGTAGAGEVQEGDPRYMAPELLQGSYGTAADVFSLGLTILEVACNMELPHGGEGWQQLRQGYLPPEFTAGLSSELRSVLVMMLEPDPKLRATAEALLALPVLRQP

T3 sequence (P45984 7-364): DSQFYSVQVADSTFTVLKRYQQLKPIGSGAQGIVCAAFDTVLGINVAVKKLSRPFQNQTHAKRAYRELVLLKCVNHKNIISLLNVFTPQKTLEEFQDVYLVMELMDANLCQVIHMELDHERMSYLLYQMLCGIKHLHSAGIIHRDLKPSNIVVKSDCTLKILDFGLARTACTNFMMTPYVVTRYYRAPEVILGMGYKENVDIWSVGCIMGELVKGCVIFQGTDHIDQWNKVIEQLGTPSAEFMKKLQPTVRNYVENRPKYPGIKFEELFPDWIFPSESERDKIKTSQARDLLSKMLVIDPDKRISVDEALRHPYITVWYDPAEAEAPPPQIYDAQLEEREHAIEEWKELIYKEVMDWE
T2 sequence (O95747 17-291): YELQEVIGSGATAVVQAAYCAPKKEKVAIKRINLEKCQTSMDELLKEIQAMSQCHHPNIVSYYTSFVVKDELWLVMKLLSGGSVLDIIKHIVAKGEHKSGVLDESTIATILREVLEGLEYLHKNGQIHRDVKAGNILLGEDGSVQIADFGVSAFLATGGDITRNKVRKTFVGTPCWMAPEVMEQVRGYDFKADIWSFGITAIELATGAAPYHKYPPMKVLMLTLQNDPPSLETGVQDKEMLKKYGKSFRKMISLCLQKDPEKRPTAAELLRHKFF

`O=C(NCc1ccccc1)Nc1ccc2cc1OCCOCCNc1ccn3ncc-2c3n1` [compound 16]: the ΔTm at 10 µM was 1.4 °C on MAP2K6A; 0.5 °C on OSR1A; 1.7 °C at MAPK9A; 3 °C on STK39A; 6.8 °C on UKL3A (ULK3A); 0.7 °C on CSNK1DA. The ΔTm at 10 µM amounted to 2.2 °C on CASKA; 4.1 °C on CDK2A; 3.8 °C on CAMKK2B; 3.7 °C at DYRK2A; 4.9 °C on MAPK15A (MAPK15HSD); 1.2 °C on GPRK5A. The thermal shift (ΔTm) at 10 µM on PKMYT1A was determined as 0.6 °C.

Consider `O=C(NCc1ccccc1Cl)Nc1ccc2cc1OCCOCCNc1ccn3ncc-2c3n1` [compound 17], for which the ΔTm at 10 µM at MAP2K6A was 0.9 °C; on OSR1A it was 0.7 °C; on MAPK9A, 0.4 °C; at STK39A, 2.4 °C; on UKL3A (ULK3A), 3.2 °C; at CSNK1DA, 0.6 °C. The shift in melting temperature (ΔTm) at 10 µM at CASKA was 2.8 °C; on CDK2A, 2.9 °C; on CAMKK2B, 3.3 °C; at DYRK2A it was 1.1 °C; at MAPK15A (MAPK15HSD), 6 °C; on GPRK5A, 1.3 °C. For the same compound, the ΔTm at 10 µM on PKMYT1A stood at 1 °C.

`O=C(NCc1cccc(Cl)c1)Nc1ccc2cc1OCCOCCNc1ccn3ncc-2c3n1` [compound 18]: the ΔTm at 10 µM worked out at 1.2 °C on MAP2K6A; 1.7 °C on OSR1A; 0.5 °C on MAPK9A; 4 °C at STK39A; 4.6 °C at UKL3A (ULK3A); 0.4 °C at CSNK1DA. The ΔTm at 10 µM at CASKA is 2.1 °C; on CDK2A, 4.3 °C; at CAMKK2B it was 3.1 °C; at DYRK2A, 2.8 °C; on MAPK15A (MAPK15HSD), 2.3 °C; on GPRK5A, 1.1 °C. At PKMYT1A, the ΔTm at 10 µM was found to be 1.5 °C.

Take `O=C(NCc1ccc(Cl)cc1)Nc1ccc2cc1OCCOCCNc1ccn3ncc-2c3n1` [compound 19]: the ΔTm at 10 µM on MAP2K6A was 1.1 °C; at OSR1A, 0.7 °C; on MAPK9A, 0.3 °C; on STK39A, 2.6 °C; at UKL3A (ULK3A) it was 4.6 °C; at CSNK1DA, 0.4 °C. Also, the ΔTm at 10 µM worked out at 2.2 °C at CASKA; 5.6 °C on CDK2A; 3.4 °C at CAMKK2B; 0.2 °C at DYRK2A; 1.8 °C on MAPK15A (MAPK15HSD); 1.5 °C on GPRK5A. At PKMYT1A, the ΔTm at 10 µM is 1.4 °C.

`O=C(NCc1ccc(Cl)cc1Cl)Nc1ccc2cc1OCCOCCNc1ccn3ncc-2c3n1` [compound 20]: the ΔTm at 10 µM at MAP2K6A was 1.1 °C; on OSR1A it was 1.8 °C; on MAPK9A it was 1.5 °C; at STK39A it was 1.9 °C; at UKL3A (ULK3A) it was 2.3 °C; at CSNK1DA it was 0.4 °C. Besides, the ΔTm at 10 µM amounted to 1.7 °C at CASKA; 2.5 °C at CDK2A; 1.2 °C at CAMKK2B; 0.6 °C on DYRK2A; 1.3 °C at MAPK15A (MAPK15HSD); 1.3 °C at GPRK5A. In addition, the thermal shift (ΔTm) at 10 µM at PKMYT1A came to 1.6 °C.

In the case of `O=C(NCc1ccc(Cl)cc1F)Nc1ccc2cc1OCCOCCNc1ccn3ncc-2c3n1` [compound 21], the thermal shift (ΔTm) at 10 µM at MAP2K6A is 1.3 °C; at OSR1A it was 1.6 °C; at MAPK9A, 0.3 °C; on STK39A, 2.4 °C; at UKL3A (ULK3A) it was 4.6 °C; at CSNK1DA, 0 °C. Moreover, the ΔTm at 10 µM at CASKA was 2.7 °C; on CDK2A, 5.9 °C; on CAMKK2B, 3.5 °C; on DYRK2A, 0.7 °C; at MAPK15A (MAPK15HSD), 1.8 °C; at GPRK5A it was 1.4 °C. Moreover, at PKMYT1A, the ΔTm at 10 µM was found to be 1.9 °C.

As for `Cc1cc(Cl)ccc1CNC(=O)Nc1ccc2cc1OCCOCCNc1ccn3ncc-2c3n1` [compound 23], the ΔTm at 10 µM on MAP2K6A was 0.4 °C; at OSR1A it was 0.8 °C; at MAPK9A, 2 °C; at STK39A, 2.5 °C; at UKL3A (ULK3A), 3.7 °C; at CSNK1DA, 1.2 °C. Also, the ΔTm at 10 µM on CASKA was found to be 2.5 °C; on CDK2A, 3.1 °C; at CAMKK2B, 1.9 °C; at DYRK2A, 0.8 °C; on MAPK15A (MAPK15HSD), 0.8 °C; on GPRK5A, 0.8 °C. The ΔTm at 10 µM on PKMYT1A is 2.1 °C.

Regarding `Cc1cc(Br)ccc1CNC(=O)Nc1ccc2cc1OCCOCCNc1ccn3ncc-2c3n1` [compound 24], the ΔTm at 10 µM was 0.6 °C at MAP2K6A; 1.6 °C on OSR1A; -1.2 °C at MAPK9A; 1 °C on STK39A; 3.7 °C at UKL3A (ULK3A); 0.2 °C on CSNK1DA. In addition, the ΔTm at 10 µM came out at 0.6 °C at CASKA; 1.6 °C on CDK2A; 0.7 °C on CAMKK2B; 0.5 °C at DYRK2A; 0.7 °C on MAPK15A (MAPK15HSD); 0 °C on GPRK5A. The ΔTm at 10 µM on PKMYT1A stood at 0.5 °C.

As to `Cc1ccc(F)cc1CNC(=O)Nc1ccc2cc1OCCOCCNc1ccn3ncc-2c3n1` [compound 26], the ΔTm at 10 µM at MAP2K6A was 0.7 °C; on OSR1A it was 1.2 °C; at MAPK9A, -1.6 °C; on STK39A, 0.9 °C; at UKL3A (ULK3A), 3.9 °C; on CSNK1DA it was -0.1 °C. In addition, the ΔTm at 10 µM at CASKA came out at 1.2 °C; on CDK2A, 2.3 °C; on CAMKK2B it was 0.9 °C; at DYRK2A, 2.3 °C; at MAPK15A (MAPK15HSD) it was 2.4 °C; on GPRK5A it was 0.1 °C. In addition, the ΔTm at 10 µM on PKMYT1A was 0.3 °C.
